How the values were obtained:
Assay in all cases: relative viability (nuclei count vs DMSO), 5 days (fraction); higher = more cells survive
Mirin + Tozasertib = compound: N=C1NC(=O)/C(=C/c2ccc(O)cc2)S1 [Mirin] + Cc1cc(Nc2cc(N3CCN(C)CC3)nc(Sc3ccc(NC(=O)C4CC4)cc3)n2)n[nH]1 [Tozasertib] (partner 0.1 µM)
Procedure, shortened: (§1)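 Each reported value is a median over duplicate plates. It expresses relative viability: treated-well nuclei count divided by vehicle-well nuclei count. Lung cancer cell lines in 1536-well plates were dosed by pin tool a day after seeding, alone with one drug or with a fixed anchor-drug dose plus five library-drug doses (not always all listed) in √10 steps, and nuclei were counted after 5 days.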

[1] = compound: CCC1=CN=CN=C1N2CCN(CC2)CC3=NC4=C(N3)C=C(C=C4)C(F)(F)F + N=C(N)NC(=N)NCCc1ccccc1 [Phenformin] (partner 250 µM)
Procedure, shortened: as §1

[2] = compound: CCn1c(-c2nonc2N)nc2cnc(Oc3cccc(NC(=O)c4ccc(OCCN5CCOCC5)cc4)c3)cc21 + N=C(N)NC(=N)NCCc1ccccc1 [Phenformin] (partner 250 µM)
Procedure, shortened: as §1

[3] = compound: CCn1c(-c2nonc2N)nc2cnc(Oc3cccc(NC(=O)c4ccc(OCCN5CCOCC5)cc4)c3)cc21 + C[C@@H](Oc1cc(-c2cnn(C3CCNCC3)c2)cnc1N)c1c(Cl)ccc(F)c1Cl [Crizotinib] (partner 1 µM)
Procedure, shortened: as §1

Cell Line	relative viability (Mirin + Tozasertib; first compound 0.25 µM)	relative viability (Mirin + Tozasertib; first compound 0.7906 µM)	relative viability (Mirin + Tozasertib; first compound 2.5 µM)	relative viability (Mirin + Tozasertib; first compound 7.906 µM)	relative viability (Mirin + Tozasertib; first compound 25 µM)	relative viability ([1]; first compound 0.04 µM)	relative viability ([1]; first compound 0.1265 µM)	relative viability ([1]; first compound 0.4 µM)	relative viability ([1]; first compound 1.265 µM)	relative viability ([1]; first compound 4 µM)	relative viability ([2]; first compound 0.04 µM)	relative viability ([2]; first compound 0.1265 µM)	relative viability ([2]; first compound 1.265 µM)	relative viability ([2]; first compound 4 µM)	relative viability ([3]; first compound 0.04 µM)	relative viability ([3]; first compound 0.1265 µM)	relative viability ([3]; first compound 0.4 µM)	relative viability ([3]; first compound 1.265 µM)	relative viability ([3]; first compound 4 µM)	relative viability ([2]; first compound 0.4 µM)
NCI-H441	0.719	0.762	0.634	0.551	0.26	0.699	0.874	0.718	0.868	0.833	0.89	0.96	0.654	0.623	1.02	0.659	0.606	0.479	0.431	–
ABC-1	0.167	0.235	0.197	0.223	0.193	0.262	0.238	0.223	0.243	0.268	0.23	0.266	0.277	0.217	1.7	0.973	1	0.608	0.396	0.209
LK-2	0.188	–	0.149	0.166	0.16	0.416	0.565	0.407	0.23	0.523	0.864	0.618	0.189	0.244	0.222	0.236	0.264	0.242	0.176	0.167
NCI-H2023	0.343	0.354	0.38	0.27	0.188	0.449	0.433	0.442	0.378	0.393	0.538	0.381	0.223	0.186	0.737	0.736	0.593	0.25	0.194	0.328
NCI-H647	0.23	0.224	0.185	0.165	0.165	0.555	0.589	0.518	0.461	0.626	0.455	0.399	0.339	0.272	1.28	0.865	0.813	0.511	0.389	0.357
SK-MES-1	0.95	1.14	0.87	0.936	0.665	0.613	0.608	0.583	0.622	0.528	0.695	0.655	0.271	0.257	1.12	0.883	0.804	0.742	0.645	0.515
NCI-H3122	0.368	0.337	0.355	0.382	0.305	0.372	0.362	0.318	0.359	0.342	0.369	0.328	0.256	0.23	0.266	0.298	0.342	0.318	0.346	0.317
LCLC-103H	0.417	0.554	0.481	0.461	0.336	0.303	0.294	0.322	0.289	0.348	0.421	0.286	0.216	0.222	1.08	1.09	0.962	1.01	0.967	0.182
NCI-H520	0.407	0.5	0.469	0.47	0.352	0.553	0.648	0.38	–	0.46	0.887	0.631	0.306	0.288	0.957	0.784	0.751	0.565	0.371	0.404
NCI-H1755	0.682	0.587	0.655	0.462	0.606	0.632	0.583	0.597	0.484	0.634	0.565	0.508	0.304	0.332	0.911	0.94	0.845	0.795	0.776	0.301
NCI-H358	0.11	0.0924	0.114	0.0872	0.106	0.345	0.289	0.372	0.317	0.349	0.352	0.295	0.27	0.198	0.561	0.661	0.522	0.467	0.281	0.224
NCI-H1734	0.262	0.285	0.272	0.228	0.223	0.377	0.379	0.427	0.381	0.445	0.427	0.388	0.284	0.201	0.671	0.669	0.581	0.464	0.285	0.209
EPLC-272H	0.267	–	0.262	0.127	0.15	0.308	0.333	0.299	0.325	0.337	0.369	0.306	0.245	0.229	1.24	1.12	0.83	0.871	0.932	0.216
NCI-H2228	0.267	0.197	0.235	0.203	0.176	0.313	0.341	0.286	0.312	0.399	0.41	0.31	0.318	0.331	0.468	0.385	0.49	0.432	0.471	0.329
